Measured values: patent EP3355943B1, “METHODS AND SYSTEMS FOR TREATING MEDICAL DEVICES AND FLUIDS” (Ethicon, Inc., priority 2015, dated 2017)
Marks after values point to notes of the source that are not given here.

Test: Kinetics of removal of LPS with different agitation techniques in presence of stearate salts
Format: biochemical
Set-up: Endotoxin Detected: unit not given here
Conditions: for Endotoxin Detected (EU) / Endotoxin Detected: 5mL SRW, baseline 1,502; for Percent (%) Removed: vs SRW Baseline; for Endotoxin Detected: Table 18
Description: 5mL of SRW was added to each of the tubes. Each solution was tested for endotoxin removal after agitation based on with sonication, vortexing, or test tube rolling. Sonication samples were sonicated at each indicated time interval for 30 seconds at a magnitude of 30. Vortex samples were vortexed at each indicated time interval for 30 seconds at 2500 RPM. Rolling samples were constantly rolling at 10 rpm. The samples were tested on the MCS for endotoxin at 1 minute, 20 minutes, 40 minutes, 60 minutes, and 80 minutes.

CCCCCCCCCCCCCCCCCC(=O)O [Magnesium Stearate]
Endotoxin Detected (EU) (Rolling, 1 minute): 1,060 EU
Percent (%) Removed (Rolling, 1 minute): 29.4%
Endotoxin Detected (EU) (Rolling, 20 minutes): 1,120 EU
Percent (%) Removed (Rolling, 20 minutes): 25.4%
Endotoxin Detected (EU) (Rolling, 40 minutes): 1,060 EU
Percent (%) Removed (Rolling, 40 minutes): 29.4%
Endotoxin Detected (EU) (Rolling, 60 minutes): 1,120 EU
Percent (%) Removed (Rolling, 60 minutes): 25.4%
Endotoxin Detected (EU) (Rolling, 80 minutes): 1,190 EU
Percent (%) Removed (Rolling, 80 minutes): 20.8%
Endotoxin Detected (EU) (Sonication, 1 minute): 743 EU
Percent (%) Removed (Sonication, 1 minute): 50.5%
Endotoxin Detected (EU) (Sonication, 20 minutes): 716 EU
Percent (%) Removed (Sonication, 20 minutes): 52.3%
Endotoxin Detected (EU) (Sonication, 40 minutes): 824 EU
Percent (%) Removed (Sonication, 40 minutes): 45.1%
Endotoxin Detected (EU) (Sonication, 60 minutes): 884 EU
Percent (%) Removed (Sonication, 60 minutes): 41.1%
Endotoxin Detected (EU) (Sonication, 80 minutes): 703 EU
Percent (%) Removed (Sonication, 80 minutes): 53.2%
Endotoxin Detected (EU) (Vortexing, 1 minute): 884 EU
Percent (%) Removed (Vortexing, 1 minute): 41.1%
Endotoxin Detected (EU) (Vortexing, 20 minutes): 1,000 EU
Percent (%) Removed (Vortexing, 20 minutes): 33.4%
Endotoxin Detected (EU) (Vortexing, 40 minutes): 901 EU
Percent (%) Removed (Vortexing, 40 minutes): 40%
Endotoxin Detected (EU) (Vortexing, 60 minutes): 958 EU
Percent (%) Removed (Vortexing, 60 minutes): 36.2%
Endotoxin Detected (EU) (Vortexing, 80 minutes): 1,060 EU
Percent (%) Removed (Vortexing, 80 minutes): 29.4%

Aluminum Monostearate
Percent (%) Removed (Rolling, 1 minute): 85.3%
Percent (%) Removed (Rolling, 20 minutes): 16.1%
Percent (%) Removed (Rolling, 40 minutes): 17.4%
Percent (%) Removed (Rolling, 60 minutes): 55.3%
Percent (%) Removed (Rolling, 80 minutes): 18.8%
Percent (%) Removed (Sonication, 1 minute): 58.3%
Percent (%) Removed (Sonication, 20 minutes): 73%
Percent (%) Removed (Sonication, 40 minutes): 75%
Percent (%) Removed (Sonication, 60 minutes): 71.1%
Percent (%) Removed (Sonication, 80 minutes): 80.6%
Endotoxin Detected (Rolling, 1 minute): 221*
Endotoxin Detected (Rolling, 20 minutes): 1,260
Endotoxin Detected (Rolling, 40 minutes): 1,240
Endotoxin Detected (Rolling, 60 minutes): 672
Endotoxin Detected (Rolling, 80 minutes): 1,220
Endotoxin Detected (Sonication, 1 minute): 626
Endotoxin Detected (Sonication, 20 minutes): 406
Endotoxin Detected (Sonication, 40 minutes): 375
Endotoxin Detected (Sonication, 60 minutes): 434
Endotoxin Detected (Sonication, 80 minutes): 291
Endotoxin Detected (Vortexing, 1 minute): 817
Endotoxin Detected (Vortexing, 20 minutes): 849
Endotoxin Detected (Vortexing, 40 minutes): 786
Endotoxin Detected (Vortexing, 60 minutes): 801
Endotoxin Detected (Vortexing, 80 minutes): 757
Percent (%) Removed (Vortexing, 1 minute): 45.6%
Percent (%) Removed (Vortexing, 20 minutes): 43.5%
Percent (%) Removed (Vortexing, 40 minutes): 47.7%
Percent (%) Removed (Vortexing, 60 minutes): 46.7%
Percent (%) Removed (Vortexing, 80 minutes): 49.6%
